Measurements taken from PubChem BioAssay (NCI).
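Cultured in 96-well plates, cells were exposed to test compound for 48 hours across five concentrations. TGI: concentration producing complete growth inhibition.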

What was measured:
Assay in all cases: growth of human tumour cells (NCI), 48 h
[1] = system: RXF 393 renal
[2] = system: SF-539 CNS
[3] = system: TK-10 renal
[4] = system: MALME-3M melanoma
[5] = system: U251 CNS
[6] = system: SK-MEL-5 melanoma
[7] = system: SF-268 CNS
[8] = system: IGROV1 ovarian
[9] = system: SR leukemia
[10] = system: M19-MEL melanoma
[11] = system: XF 498 CNS
[12] = system: HOP-62 NSCLC
[13] = system: UO-31 renal
[14] = system: SN12C renal
[15] = system: HCT-15 colon
[16] = system: HT29 colon
[17] = system: SF-295 CNS
[18] = system: HCT-116 colon
[19] = system: SNB-78 CNS
[20] = system: 786-0 renal
[21] = system: K-562 leukemia
[22] = system: NCI-H522 lung
[23] = system: SW-620 colon
[24] = system: NCI-H226 lung
[25] = system: RPMI-8226 leukemia
[26] = system: KM20L2 colon
[27] = system: MOLT-4 leukemia
[28] = system: OVCAR-8 ovarian
[29] = system: SK-MEL-28 melanoma
[30] = system: SK-MEL-2 melanoma
[31] = system: CCRF-CEM leukemia
[32] = system: RXF-631 renal
[33] = system: M14 melanoma
[34] = system: EKVX NSCLC
[35] = system: SNB-75 CNS
[36] = system: NCI-H23 lung
[37] = system: ACHN renal
[38] = system: A549 NSCLC
[39] = system: LXFL 529 NSCLC
[40] = system: NCI-H460 lung
[41] = system: SNB-19 CNS
[42] = system: SK-OV-3 ovarian
[43] = system: KM12 colon
[44] = system: OVCAR-5 ovarian
[45] = system: HOP-18 NSCLC
[46] = system: DLD-1 colon
[47] = system: A498 renal
[48] = system: UACC-257 melanoma
[49] = system: DMS 273 small cell lung
[50] = system: CAKI-1 renal
[51] = system: HOP-92 NSCLC
[52] = system: HCC-2998 colon
[53] = system: COLO 205 colon
[54] = system: OVCAR-4 ovarian
[55] = system: UACC-62 melanoma
[56] = system: HL-60(TB) leukemia
[57] = system: DMS 114 small cell lung

Measured: TGI

Cc1ccc(C2=C(c3ccc(C)cc3)C(c3ccc(C)cc3)=C(c3ccc(C)cc3)C2=O)cc1
not listed: [49] | [50] | [51] | [52] | [53] | [54] | [55] | [56] | [57]
> 100 µM: all other assays above

Cc1ncc(CCl)c(CCl)c1O
not listed: [1] | [3] | [5] | [6] | [15] | [16] | [17] | [19] | [23] | [26] | [28] | [34] | [38] | [40] | [41] | [43] | [44] | [45] | [48]
> 100 µM: all other assays above
